Data: patent publication US9856508B2, “Chemiluminescent compositions, methods, assays and kits for oxidative enzymes” (LIFE TECHNOLOGIES CORPORATION, priority 2010, dated 2018)
Values belong to the compound of their own block, whether it stands above or below them.

Tests used:
CYP2C19 [1] = biological target: T1, CYP2C19 (Homo sapiens, UniProt P33261); assay: Isozyme specificity of 1,2-dioxetane substrates, rhCYP microsomes, 2-step endpoint assay; type: biochemical; conditions: for specificity for the CYP2C19 isozyme: FIG. 4A/5A, rhCYP microsomes, 25° C., 25 min, 10 μM substrate, 5 nM rhCYP450, isozyme-preferred potassium phosphate buffer, pH 7.4; for activity from CYP2C19 under CYP2C19 assay conditions: dioxetane as enzyme substrate
T1 construct: purchased BD/Gentest (or other vendor) 456259; host or cells: recombinant human CYP microsomes
Experimental: (§1) Assays were performed using the same conditions (25° C., 5 nM rhCyp, 10 μM substrate, 25 min endpoint assay, with isozyme-specific buffers, Luminoscan plate reader) but on different days.
(§2) Cytochrome P450 assays have been developed to determine the isozyme specificity of novel 1,2-dioxetane chemiluminescent CYP450 substrates. In these assays, a 1,2-dioxetane substrate that has been determined to be a good substrate for a specific CYP450 isozyme is screened against individual recombinant (human or other) CYP450 isozymes. The protocol follows the 2-Step Endpoint assay format described above (Example 2, Format 1). The assay can be performed using either assay conditions that mimic an inhibition assay (Example 1) using substrate concentrations near the known or predicted Km of the substrate with its known isozyme, or at concentrations designed for more sensitive enzyme detection which is generally above the Km. Assays can be performed in several different ways depending on the desired information. If one is seeking to find out if the dioxetane is a substrate for different CYP450 isozymes at the specific isozyme's preferred assay conditions, the assays should be performed using the buffer and assay conditions preferred by each specific isozyme (Format 1). If one wants to find out if the dioxetane substrate is selective for a given CYP450 isozyme at that isozyme's preferred assay conditions, the assay should be performed using only the assay conditions of the matched isozyme (Format 2). Assays use recombinant human (rh) CYP450 isozymes (final [5 or 10 nM]), NADPH Regeneration System (final [1×]) and Potassium Phosphate Buffer prepared in a 2× Master Mix. 50 μL of the Master Mix is added to the wells of a 96-well plate. 40 μL of water is added the rows of the plate containing the Master Mix. The reaction is started by addition of 10 μL of a 10× NADP+ (nicotinamide adenine dinucleotide phosphate) and 1,2-Dioxetane Substrate (final [1 to 10 μM]) mix to assay wells. The assays are incubated for either 25 min (Format 1) or at the specific assay time (see Example 48, Format 2).
(§3) • (See FIGS. 3A, 4A, and 5A.) Materials: • rhCytochrome P450 Isozymes: • CYP3A4 (BD/Gentest, Cat #456202) (or other vendor) • CYP2C19 (BD/Gentest, Cat #456259) (or other vendor) • CYP2C9 (BD/Gentest, Cat #456258) (or other vendor) • CYP2D6 (BD/Gentest, Cat #456217) (or other vendor) • CYP1A2 (BD/Gentest, Cat #456203) (or other vendor) • Or Other CYP450 recombinant isozymes • 200 mM Potassium Phosphate Buffer, pH 7.4 • 100 mM Potassium Phosphate Buffer, pH 7.4 • 100× NADP+ • (10 mM NADP+ in 100 mM Potassium phosphate buffer, pH 7.4) • 100× Regeneration System • (333 mM Glucose-6-phosphate, 30 Units/mL Glucose-6-phosphate dehydrogenase in 100 mM Potassium Phosphate Buffer, pH 7.4) • 1,2-Dioxetane Substrates (in 100% Acetonitrile, water, or acetonitrile/water mixture) • 96 well white microplate • Accelerator II Protocol Overview: (See, FIG. 10). Assay Set-Up:
(§4) Contains: • NADP+: 100× stock is 10 mM NADP+ in 100 mM Potassium Phosphate Buffer, pH 7.4 • 100 μM Known 1,2-Dioxetane Substrate Assay Procedure: • 1. Thaw all reagents on ice, except substrates: warm-up to RT under aluminum foil (light sensitive) • 2. Prepare 2× Master Mixes in 2× reaction buffer (keep on ice).
(§5) • 3. Add 50 μL of the specific 2× Master Mix to the desired wells • 4. Add 40 μL of sterile water (H2O) to each well of the plate • 5. Cover plate with plate sealer and let the assay wells equilibrate to 25° C. or room temperature for a few minutes while you prepare the 10×NADP+/Substrate Mixture. • 6. Prepare 10× NADP+/Substrate Mixture immediately before use (light sensitive!)
(§6) • 100× NADP+: 10× (1× final) • H2O: to final volume. • Add substrate by trituration and vortex to allow for maximum substrate solubility in the aqueous mixture. • *The final organic solvent concentration in the assay should be less than 0.1% and preferably much less. • 7. […]

2C19 and 2C18 isozymes = assay: as above; type: biochemical, human; conditions: dioxetane as enzyme substrate
Experimental: as §1
Cytochrome P450 assays have been developed to determine the isozyme specificity of novel 1,2-dioxetane chemiluminescent CYP450 substrates. In these assays, a 1,2-dioxetane substrate that has been determined to be a good substrate for a specific CYP450 isozyme is screened against individual recombinant (human or other) CYP450 isozymes. The protocol follows the 2-Step Endpoint assay format described above (Example 2, Format 1). The assay can be performed using either assay conditions that mimic an inhibition assay (Example 1) using substrate concentrations near the known or predicted Km of the substrate with its known isozyme, or at concentrations designed for more sensitive enzyme detection which is generally above the Km. Assays can be performed in several different ways depending on the desired information. If one is seeking to find out if the dioxetane is a substrate for different CYP450 isozymes at the specific isozyme's preferred assay conditions, the assays should be performed using the buffer and assay conditions preferred by each specific isozyme (Format 1). If one wants to find out if the dioxetane substrate is selective for a given CYP450 isozyme at that isozyme's preferred assay conditions, the assay should be performed using only the assay conditions of the matched isozyme (Format 2). Assays use recombinant human (rh) CYP450 isozymes (final [5 or 10 nM]), NADPH Regeneration System (final [1×]) and Potassium Phosphate Buffer prepared in a 2× Master Mix. 50 μL of the Master Mix is added to the wells of a 96-well plate. 40 μL of water is added the rows of the plate containing the Master Mix. The reaction is started by addition of 10 μL of a 10× NADP+ (nicotinamide adenine dinucleotide phosphate) and 1,2-Dioxetane Substrate (final [1 to 10 μM]) mix to assay wells. The assays are incubated for either 25 min (Format 1) or at the specific assay time (see Example 48, Format 2). […]

other CYP isozyme = assay: as above; type: biochemical, human; conditions: FIG. 5A, 25° C., 25 min, 10 μM BZT-Me, 5 nM rhCYP450
Experimental: FIG. 5A and FIG. 5B compare CYP450 isozyme specificity of 1,2-dioxetane substrate BZT-Me in recombinant human microsomes (rhCYPs) and human liver microsomes. FIG. 5A is a graphic representation of isozyme specificity of BZT-Me in rhCYP microsomes. Assays were performed ate 25° C. for 25 min using 10 μM BZT-Me, 5 nM rhCYP450, and isozyme-preferred potassium phosphate buffer, pH 7.4. […] FIG. 5B is a graphic representation of isozyme specificity of BZT-Me in pooled human liver microsomes (HLMs). Assays were performed for 25 min at 25° C. using 20 μM BZT-Me and 50 mM potassium phosphate buffer, pH 7.4. Positive (2C19) and negative (3A4, 2D6, and microsome only) controls were performed using 5 nM rhCYP450 microsomes. Pooled HLMs or low 2C19 HLMs were assayed at 0.5, 0.25, 0.125, or 0.0625 mg/ml. Assays were performed with or without 2 μM ketoconazole to indicate CYP3A family specificity or 0.5 μM miconozole. All assays were performed using the 2-step assay method (Example 48, Format A).
Cytochrome P450 assays have been developed to determine the isozyme specificity of novel 1,2-dioxetane chemiluminescent CYP450 substrates. In these assays, a 1,2-dioxetane substrate that has been determined to be a good substrate for a specific CYP450 isozyme is screened against individual recombinant (human or other) CYP450 isozymes. […]

CYP3A family isozymes [2] = assay: as above; type: biochemical, human; conditions: dioxetane as enzyme substrate
Experimental: as §1, §2, §3, §4, §5, §6

CYP3A family isozymes [3] = biological target: T2, CYP3A family isozymes (Homo sapiens, UniProt P08684); assay: as above; type: biochemical; conditions: FIG. 4A; rhCYP microsomes, 25° C., 25 min, 10 μM substrate, 5 nM rhCYP450, isozyme-preferred potassium phosphate buffer, pH 7.4
T2 construct: purchased BD/Gentest (CYP3A4 only; or other vendor) 456202 (CYP3A4); host or cells: recombinant human CYP microsomes
Experimental: as §1, §2, §3, §4, §5, §6

CYP2C19 [4] = assay: Isozyme specificity of AMPPD-Bn in pooled human liver microsomes (HLMs); type: biochemical; conditions: FIG. 4B, 25 min, 25° C., 20 μM AMPPD-Bn, 100 mM potassium phosphate buffer, pH 7.4
Experimental: FIG. 4A and FIG. 4B compare CYP450 isozyme specificity of 1,2-dioxetane substrate AMPPD-Bn in recombinant human microsomes (rhCYPs) and human liver microsomes. FIG. 4A is a graphic representation of isozyme specificity of AMPPD-Bn in rhCYP microsomes. Assays were performed at 25° C. for 25 min using 10 μM AMPPD-Bn, 5 nM rhCYP450 and isozyme-preferred potassium phosphate buffer, pH 7.4. […] FIG. 4B is a graphic representation of isozyme specificity of AMPPD-Bn in pooled human liver microsomes (HLMs). Assays were performed for 25 min at 25° C. using 20 μM AMPPD-Bn and 100 mM potassium phosphate buffer, pH 7.4. Positive (3A4) and negative (2C19, 2D6 and microsome only) controls were performed using 5 nM rhCYP450 microsomes. Pooled HLMs were assayed at 0.5, 0.25, 0.125, or 0.0625 mg/ml. Assays were performed either with or without 2 μM ketoconazole to indicate CYP3A family specificity. […] All assays were performed using the 2-step assay method (Example 48, Format A).
The protocol follows the 2-Step endpoint assay format described in Example 48 (Format A). […] The assays are incubated for either 10 to 25 min before addition of Accelerator and reading of luminescent signal on a luminometer. For relative quantification, samples can be compared to a standard curve of known enzyme concentration, bearing in mind that recombinant enzyme can not fully compare to native enzyme. […]

CYP2C8 = biological target: T3, CYP2C8 (Homo sapiens, UniProt P10632); assay: Isozyme specificity of 1,2-dioxetane substrates, rhCYP microsomes, 2-step endpoint assay; type: biochemical; conditions: dioxetane as enzyme substrate
T3 construct: host or cells: recombinant human CYP microsomes
T3 sequence (P10632 1-490): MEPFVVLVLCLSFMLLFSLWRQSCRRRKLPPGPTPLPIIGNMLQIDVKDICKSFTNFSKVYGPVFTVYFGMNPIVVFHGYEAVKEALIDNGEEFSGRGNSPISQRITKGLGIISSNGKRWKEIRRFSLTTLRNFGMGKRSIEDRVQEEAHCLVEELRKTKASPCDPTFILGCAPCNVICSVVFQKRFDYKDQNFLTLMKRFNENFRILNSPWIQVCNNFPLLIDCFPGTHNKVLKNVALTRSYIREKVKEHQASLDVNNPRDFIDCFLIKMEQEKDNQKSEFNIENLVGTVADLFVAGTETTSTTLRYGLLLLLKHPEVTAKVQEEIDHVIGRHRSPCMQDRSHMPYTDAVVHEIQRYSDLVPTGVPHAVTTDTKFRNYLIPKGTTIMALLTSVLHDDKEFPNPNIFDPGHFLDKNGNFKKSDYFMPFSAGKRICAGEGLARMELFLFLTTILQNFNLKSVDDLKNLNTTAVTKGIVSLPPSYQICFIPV
Experimental: as §1, §2, §3, §4, §5, §6

T1 sequence (P33261 whole entry): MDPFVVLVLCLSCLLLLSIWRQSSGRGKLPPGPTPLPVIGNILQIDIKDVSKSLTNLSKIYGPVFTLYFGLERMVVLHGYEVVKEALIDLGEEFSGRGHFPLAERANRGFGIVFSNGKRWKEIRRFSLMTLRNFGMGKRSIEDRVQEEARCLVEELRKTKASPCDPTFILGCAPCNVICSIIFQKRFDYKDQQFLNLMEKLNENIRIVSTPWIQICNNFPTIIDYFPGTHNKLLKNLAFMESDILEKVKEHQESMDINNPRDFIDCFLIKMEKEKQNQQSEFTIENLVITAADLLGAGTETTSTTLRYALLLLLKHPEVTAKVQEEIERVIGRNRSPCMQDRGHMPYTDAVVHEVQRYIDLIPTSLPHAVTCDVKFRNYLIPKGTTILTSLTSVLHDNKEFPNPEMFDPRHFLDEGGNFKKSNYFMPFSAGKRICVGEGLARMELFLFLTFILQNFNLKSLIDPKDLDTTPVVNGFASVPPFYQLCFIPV
T2 sequence (P08684 whole entry): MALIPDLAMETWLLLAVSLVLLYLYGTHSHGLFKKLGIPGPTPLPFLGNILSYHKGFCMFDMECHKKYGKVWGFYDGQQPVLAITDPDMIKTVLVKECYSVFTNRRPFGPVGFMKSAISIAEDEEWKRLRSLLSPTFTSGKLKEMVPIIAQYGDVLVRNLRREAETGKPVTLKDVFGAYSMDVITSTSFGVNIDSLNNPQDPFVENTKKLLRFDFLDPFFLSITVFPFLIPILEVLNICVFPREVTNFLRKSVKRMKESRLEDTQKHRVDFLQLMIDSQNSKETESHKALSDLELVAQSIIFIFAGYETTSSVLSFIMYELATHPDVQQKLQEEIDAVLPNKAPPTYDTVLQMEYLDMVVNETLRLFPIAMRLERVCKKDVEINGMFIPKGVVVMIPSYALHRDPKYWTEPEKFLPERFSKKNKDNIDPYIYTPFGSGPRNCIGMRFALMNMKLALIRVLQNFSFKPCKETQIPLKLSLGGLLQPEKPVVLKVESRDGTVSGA

Structure (SMILES): COc1ccc2sc(C3(OC)OOC34C3CC5CC(C3)CC4C5)cc2c1 (stereo not drawn) [BZT-Me]
specificity for the CYP2C19 isozyme (CYP2C19 [1]): strong specificity
specificity for 2C19 and 2C18 isozymes (2C19 and 2C18 isozymes): strong specificity
oxidation by other CYP isozyme (other CYP isozyme): also oxidized

Structure (SMILES): CCOc1cc(C2(OC)OOC23C2CC4CC3CC(Cl)(C4)C2)ccc1Cl (stereo not drawn) [CDP-Star-Et, CDP-Star-ET]
specificity for 2C19 and 2C18 isozymes (2C19 and 2C18 isozymes): strong specificity

Structure (SMILES): COC1(c2cccc(OCc3ccccc3)c2)OOC12C1CC3CC(C1)CC2C3 (stereo not drawn) [AMPPD-Bn]
specificity for the CYP2C19 isozyme (CYP2C19 [1]): strong specificity
activity from CYP2C19 under CYP2C19 assay conditions (CYP2C19 [1]): significant activity
specificity for CYP3A4 isozyme (CYP3A family isozymes [3]): strong specificity
specificity for the CYP3A family isozymes (CYP3A family isozymes [2]): strong specificity
contribution of CYP2C19 activity to AMPPD-Bn oxidation in HLMs (CYP2C19 [4]): does not significantly contribute

Structure (SMILES): COc1cc(C2(OC)OOC23C2CC4CC3CC(Cl)(C4)C2)ccc1Cl (stereo not drawn) [CDP-Star-Me]
specificity for 2C19 and 2C18 isozymes (2C19 and 2C18 isozymes): strong specificity

Structure (SMILES): CCOc1cccc(C2(OC)OOC23C2CC4CC3CC(OCCC(C(=O)[O-])C(=O)[O-])(C4)C2)c1.[Na+].[Na+] (stereo not drawn) [bis-CO2Na-Ad-Ph-OEt dxt]
specificity for CYP2C8 (CYP2C8): high specificity

Other lines, results leading:

specificity for 2C19 and 2C18 isozymes (2C19 and 2C18 isozymes): strong specificity
Structure (SMILES): COc1ccc2sc(C3(OC)OOC34C3CC5CC(C3)CC4C5)cc2c1Cl (stereo not drawn) [Cl-BZT-Me]

activity from CYP2C19 under CYP2C19 assay conditions (CYP2C19 [1]): significant activity
specificity for the CYP3A family isozymes (CYP3A family isozymes [2]): strong specificity
Structure (SMILES): COC1(c2ccc(Cl)c(OCc3ccccc3)c2)OOC12C1CC3CC2CC(Cl)(C3)C1 (stereo not drawn) [CDP-Star-Bn]

specificity for the CYP3A family isozymes (CYP3A family isozymes [2]): strong specificity
Structure (SMILES): CCOc1cccc(C2(OC)OOC23C2CC4CC3CC(OCC[N+](C)(CC)CC)(C4)C2)c1 (stereo not drawn) [Q+-Amino-Ad-Ph-OEt, Q^+-Amino-Ad-Ph-OEt dxt]
